Experiment [1] addresses T1, Giα2 binding to GST-AGS3-GPR (Homo sapiens, UniProt P04899).
T1 construct: made in house; host or cells: Sf9 insect cells (Giα2)
Briefly: Protein interaction assay: Giα2 binding to AGS3-GPR with GPR peptides. The settings on record: 10 μM GDP; read-out: IC50 for blocking the binding of Giα2 to GST-AGS3-GPR. As for the experimental part: (§1) A and B, the carboxyl region of AGS3 (Pro^463-Ser^650) containing all four GPR repeats was generated as a His-tagged (A) or GST fusion (B) protein for protein interaction assays as described under Examples. All interactions were done in the presence of 10 μM GDP, and the input lanes represent one-tenth of the G-protein used in each interaction assay. A, Giα1 (75 nM) was incubated with 300 nM His-tagged AGS3-GPR in the absence and presence of increasing amounts of the GPR peptide, after which bound Giα was isolated on a nickel affinity matrix, and samples were processed for immunoblotting with Giα antisera. […] C and D, GTPγ^35S binding to G-proteins (100 nM) was measured in the absence and presence of peptides as described in the Examples. Data are expressed as the percent of specific binding (˜5 pmol) observed in the absence of peptide and represent the means±S.E. derived from three experiments. […]
(§2) Protein Interaction Assays—The GPR domain of AGS3 (Pro^463-Ser^650) containing the four GPR motifs was generated as a glutathione S-transferase fusion protein by polymerase chain reaction using the full-length cDNA of AGS3 as a template. […] The interaction of GST-AGS3-GPR and HIS-tagged AGS3-GPR with G-proteins was assessed by protein interaction experiments using purified G-protein as described previously (33). […]

Experiment [2] deals with T2, Giα1 binding to GST-AGS3-GPR (Homo sapiens, UniProt P63096).
T2 construct: made in house; host or cells: Sf9 insect cells (Giα1); bacteria (His-AGS3-GPR)
The experiment can be described thus: Protein interaction assay: Giα1 binding to AGS3-GPR with GPR peptide. The settings on record: 10 μM GDP; Giα1 75 nM, AGS3-GPR 300 nM; read-out: IC50 for blocking the binding of Giα1 to GST-AGS3-GPR. How it is done:
as §1, §2

Experiment [3] addresses T3, Giα2 (Homo sapiens, UniProt P04899).
T3 construct: made in house; host or cells: Sf9 insect cells
The experiment can be described thus: GTPγS binding assay, Giα2. The experiment is classed as biochemical. The settings on record: G-protein 100 nM, 30 min, 24° C.; read-out: IC50 for inhibition of GTPγS binding to Giα2. How it is done: (§3) A and B, the carboxyl region of AGS3 (Pro^463-Ser^650) containing all four GPR repeats was generated as a His-tagged (A) or GST fusion (B) protein for protein interaction assays as described under Examples. All interactions were done in the presence of 10 μM GDP, and the input lanes represent one-tenth of the G-protein used in each interaction assay. A, Giα1 (75 nM) was incubated with 300 nM His-tagged AGS3-GPR in the absence and presence of increasing amounts of the GPR peptide, after which bound Giα was isolated on a nickel affinity matrix, and samples were processed for immunoblotting with Giα antisera. The blot in the upper panel of A was stripped and reprobed with AGS3 antisera to provide internal controls for protein loading. B, Giα2 (75 nM) was incubated with 300 nM AGS3-GPR or GST in the presence and absence of 100 μM GPR consensus peptide, GPR peptide Q15A, or GPR peptide R23F. The immunoblots presented in A and B are representative of three experiments. C and D, GTPγ^35S binding to G-proteins (100 nM) was measured in the absence and presence of peptides as described in the Examples. Data are expressed as the percent of specific binding (˜5 pmol) observed in the absence of peptide and represent the means±S.E. derived from three experiments. The concentration of peptides in D is 10 μM.
GTPγS Binding Assays—GTPγS binding assays were generally conducted as described (39). G-proteins (100 nM) were preincubated for 20 min at 24° C. in the presence and absence of GPR peptides. Binding assays (duplicate determinations) were initiated by addition of 0.5 μM GTPγS (4.0×10^4 dpm/pmol), and incubations (total volume=50 μl) were continued for 30 min at 24° C. Both preincubations and GTPγS binding assays were conducted in binding buffer containing 2 mM MgCl2. Reactions were terminated by rapid filtration through nitrocellulose filters with 4×4-ml washes of stop buffer (50 mM Tris-HCl, 5 mM MgCl2, 1 mM EDTA, pH 7.4, at 4° C.). Radioactivity bound to the filters was determined by liquid scintillation counting. Nonspecific binding was defined by 100 μM […].
Background: GTPγS resists hydrolysis and so accumulates on activated G proteins.

The target of experiment [4] is T4, Giα1 (Homo sapiens, UniProt P63096).
T4 construct: made in house; host or cells: Sf9 insect cells
The experiment can be described thus: GTPγS binding assay, Giα1. The experiment is classed as biochemical. How it is done: as §3, with “The immunoblots presented in A and B are representative of three experiments.” left out, “The concentration of peptides in D is 10 μM.” left out
GTPγS Binding Assays—GTPγS binding assays were generally conducted as described (39). […] Radioactivity bound to the filters was determined by liquid scintillation counting. […]

Experiment [5] concerns the target Gtα (Homo sapiens, UniProt P11488). The experiment can be described thus: Competition with Gβγ subunits for binding to Gtα.

Where no end group is shown, it is not given here.

T4 sequence (P63096 whole entry): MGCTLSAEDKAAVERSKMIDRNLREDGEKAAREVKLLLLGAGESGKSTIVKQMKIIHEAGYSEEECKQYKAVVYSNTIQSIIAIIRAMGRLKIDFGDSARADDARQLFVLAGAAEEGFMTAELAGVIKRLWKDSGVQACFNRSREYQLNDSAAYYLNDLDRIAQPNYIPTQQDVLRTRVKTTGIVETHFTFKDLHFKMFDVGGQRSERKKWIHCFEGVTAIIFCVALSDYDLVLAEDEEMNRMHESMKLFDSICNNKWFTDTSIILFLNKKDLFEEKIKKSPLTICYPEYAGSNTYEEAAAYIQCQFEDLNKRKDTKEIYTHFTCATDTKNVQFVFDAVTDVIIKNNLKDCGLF
T1 sequence (P04899 2-355 limits assumed): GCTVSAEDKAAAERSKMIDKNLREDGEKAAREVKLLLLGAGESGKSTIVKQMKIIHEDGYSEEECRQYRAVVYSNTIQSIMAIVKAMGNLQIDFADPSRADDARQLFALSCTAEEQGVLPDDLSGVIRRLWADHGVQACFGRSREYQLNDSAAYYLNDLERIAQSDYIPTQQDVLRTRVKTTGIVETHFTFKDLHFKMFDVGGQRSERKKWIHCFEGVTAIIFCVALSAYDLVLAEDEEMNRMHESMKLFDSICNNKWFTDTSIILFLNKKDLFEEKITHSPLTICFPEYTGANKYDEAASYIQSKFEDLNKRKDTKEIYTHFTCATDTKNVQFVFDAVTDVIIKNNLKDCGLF
T2 sequence (P63096 2-354 limits assumed): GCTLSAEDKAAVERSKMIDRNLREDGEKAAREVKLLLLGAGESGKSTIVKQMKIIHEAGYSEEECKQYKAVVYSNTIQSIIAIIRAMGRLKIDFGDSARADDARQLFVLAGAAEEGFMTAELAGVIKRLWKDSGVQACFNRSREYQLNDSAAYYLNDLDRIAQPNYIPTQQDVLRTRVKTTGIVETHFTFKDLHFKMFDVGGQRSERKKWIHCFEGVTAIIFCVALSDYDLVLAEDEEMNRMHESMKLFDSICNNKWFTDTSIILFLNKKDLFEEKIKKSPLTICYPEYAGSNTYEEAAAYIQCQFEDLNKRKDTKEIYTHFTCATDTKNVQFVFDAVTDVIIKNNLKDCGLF
Gtα, sequence (P11488 whole entry): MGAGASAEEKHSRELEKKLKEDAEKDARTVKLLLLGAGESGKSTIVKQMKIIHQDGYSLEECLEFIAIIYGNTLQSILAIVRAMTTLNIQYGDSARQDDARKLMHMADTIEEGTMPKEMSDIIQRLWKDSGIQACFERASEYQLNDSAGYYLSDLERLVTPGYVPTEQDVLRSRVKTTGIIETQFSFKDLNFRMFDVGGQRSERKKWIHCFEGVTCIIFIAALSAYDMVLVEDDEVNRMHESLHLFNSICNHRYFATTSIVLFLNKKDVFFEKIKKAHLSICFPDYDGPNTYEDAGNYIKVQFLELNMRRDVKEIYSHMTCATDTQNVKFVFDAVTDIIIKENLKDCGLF
T3 sequence (P04899 whole entry): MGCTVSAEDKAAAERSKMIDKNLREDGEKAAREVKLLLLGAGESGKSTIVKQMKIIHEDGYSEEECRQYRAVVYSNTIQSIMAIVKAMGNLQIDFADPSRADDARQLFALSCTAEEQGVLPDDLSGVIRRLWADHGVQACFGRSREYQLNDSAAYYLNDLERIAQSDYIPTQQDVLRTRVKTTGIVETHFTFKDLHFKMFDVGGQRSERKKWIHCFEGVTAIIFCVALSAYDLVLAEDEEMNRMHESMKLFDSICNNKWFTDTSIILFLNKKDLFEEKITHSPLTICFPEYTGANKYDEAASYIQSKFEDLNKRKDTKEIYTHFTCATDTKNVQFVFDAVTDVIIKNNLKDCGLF

As for “TMGEEDFFDLLAKSQSKRMDDQRVDLAG-NH2 [GPR consensus peptide]”, the IC50 in experiment [1] is ~200 nM; in experiment [2], ~200 nM; in experiment [3] it was ~200 nM; in experiment [4] (G-protein 100 nM, 30 min, 24° C., read-out: IC50 for inhibition of GTPγS binding to Giα1), ~200 nM.

B1: AGS3-GPR: GPR domain of AGS3 (Pro463-Ser650) containing the four GPR motifs, GST or His-tagged (protein)
chain: PREGSHSPLDSADVRVQVPRTGIPRAPSSDEECFFDLLSKFQSSRMDDQRCPLEEGQAGAAEATAAPTLEERAAQPSVTASPQTEEFFDLIASSQSRRLDDQRASVGSLPGLRITLNNVGHLRGDGDPQEPGDEFFNMLIKYQSSRIDDQRCPPPDVLPRGPTMPDEDFFSLIQRVQAKRMDEQRVDL
modifications: left off: a dimerising Fc or GST
notes: GPR domain of AGS3 (Pro463-Ser650) containing the four GPR motifs, GST or His-tagged
Regarding B1, in experiment [5], the “competition with Gβγ subunits for binding to Gtα” value is on record as “effectively competed”. The “GTPγS binding to Giα1 (AGS3-GPR protein)” value in experiment [4] was “inhibited”.

Broadly, the IC50 is the concentration at which inhibition is half-maximal.

These data come from patent US20030054411A1, “GPR motifs and uses thereof” (priority 2001, published 2003).
